# Measurements from patent publication US9232796B2, “Herbicidal compositions comprising 4-amino-3-chloro-5-fluoro-6-(4-chloro-2-fluoro-3-methoxyphenyl) pyridine-2-carboxylic acid or a derivative thereof and acetyl-CoA carboxylase (ACCase) inhibitors” (DOW AGROSCIENCES LLC, priority 2012, dated 2016).
# Tests used:
# [1] = test system: IPOHE; test: Example V (second) postemergence foliar-applied ternary mixtures, greenhouse, direct seeded rice weeds; format: in vivo, Ipomoea hederacea Jacq.; conditions: Penoxsulam 8.75 gai/ha
# From the text: (§1) All stock solutions and applications solutions were visually inspected for compound compatibility prior to application. Spray solutions were applied to the plant material with an overhead Mandel track sprayer equipped with a 8002E nozzles calibrated to deliver 187 L/ha over an application area of 0.503 m^2 at a spray height of 18 inches (46 cm) above average plant canopy height. Control plants were sprayed in the same manner with the solvent blank.
# (§2) The treated plants and control plants were placed in a greenhouse as described above and watered by sub-irrigation to prevent wash-off of the test compounds. After approximately 3 weeks, the condition of the test plants as compared with that of the untreated plants was determined visually and scored on a scale of 0 to 100 percent where 0 corresponds to no injury or growth inhibition and 100 corresponds to complete kill.
# (§3) Colby's equation was used to determine the herbicidal effects expected from the mixtures (Colby, S. R. 1967. Calculation of the synergistic and antagonistic response of herbicide combinations. Weeds 15:20-22.).
# (§4) The following equation was used to calculate the expected activity of mixtures containing three active ingredients, A, B, and C: Expected=A+B+C−((A×B+A×C+B×C)/100)+(A×B×C/10000)
# [2] = test system: SCPMA; test: Example VI in-water applied ternary mixtures, greenhouse, transplanted paddy rice weeds; format: in vivo, Schoenoplectus maritimus (L.) Lye; conditions: 5 gai/ha
# Experimental: (§5) Applications were made by injecting with a pipetter appropriate amounts of the application solutions, into the aqueous layer of the paddy. Control plants were treated in the same manner with the solvent blank. Applications were made so that all treated plant material received the same concentrations of acetone and crop oil concentrate.
# as §2, with “water was added as needed” for “watered by sub-irrigation”, “maintain a paddy flood.” for “prevent wash-off of the test compounds.”, “weeks” for “weeks,”
# as §3
# The following equation was used to calculate the expected activity of mixtures containing three active ingredients, A. B, and C: Expected=A+B+C−((A×B+A×C+B×C)/100)+(A×B×C/10000)
# [3] = test system: CYPRO; test: as above; format: in vivo, Cyperus rotundus L.
# Experimental: (§6) Weed seeds or nutlets of the desired test plant species were planted in puddled soil (mud) prepared by mixing a shredded, non-sterilized mineral soil (50.5 percent silt, 25.5 percent clay, and 24 percent sand, with a pH of about 7.6 and an organic matter content of about 2.9 percent) and water at a 1:1 volumetric ratio. The prepared mud was dispensed in 365 mL aliquots into 16-ounce (oz.) non-perforated plastic pots with a surface area of 86.59 square centimeters (cm^2) leaving a headspace of 3 centimeters (cm) in each pot. Mud was allowed to dry overnight prior to planting or transplanting. Rice seeds were planted in Sun Gro MetroMix® 306 planting mixture, which typically has a pH of 6.0 to 6.8 and an organic matter content of about 30 percent, in plastic plug trays. Seedlings at the second or third leaf stage of growth were transplanted into 860 mL of mud contained in 32-oz. non-perforated plastic pots with a surface area of 86.59 cm^2 4 days prior to herbicide application. The paddy was created by filling the headspace of the pots with 2.5 to 3 cm of water. When required to ensure good germination and healthy plants, a fungicide treatment and/or other chemical or physical treatment was applied. The plants were grown for 4-22 days in a greenhouse with an approximate 14 hr. photoperiod which was maintained at about 29° C. during the day and 26° C. during the night. Nutrients were added as Osmocote® (19:6:12, N:P:K+minor nutrients) at 2 g per 16-oz. pot and 4 g per 32-oz. pot. Water was added on a regular basis to maintain the paddy flood, and supplemental lighting was provided with overhead metal halide 1000-Watt lamps as necessary. The plants were employed for testing when they reached the first through fourth true leaf stage.
# (§7) Treatments consisted of the benzyl ester of 4-amino-3-chloro-5-fluoro-6-(4-chloro-2-fluoro-3-methoxy-phenyl)pyridine-2-carboxylic acid (Compound A), formulated as an SC (suspension concentrate), an ACCase inhibitor herbicide, and a third herbicidal component, each applied alone and in ternary combination. Forms of compound A were applied on an acid equivalent basis.
# (§8) The ACCase inhibitor component was applied on an active ingredient basis and included cyhalofop-R-butyl formulated as Clincher® G and metamifop formulated as Metamifop EC. Other herbicidal components were applied on an active ingredient or acid equivalent basis depending on the compound and included penoxsulam formulated as Grasp® SC, bentazon sodium formulated as Basagran®, triclopyr […] (TEA) salt formulated as Grandstand® R, benzobicyclon formulated as Benzobicyclon, benfuresate formulated as Full Slot® WG, pyraclonil formulated as Pyraclon® Flowable, mefenacet (technical grade material), and pretilachlor (technical grade material).
# (§9) Treatment requirements for each compound or herbicidal component were calculated based upon the rates being tested, the concentration of active ingredient or acid equivalent in the formulation, an application volume of 1 mL per component per pot, and an application area of 86.59 cm^2 per pot.
# (§10) For formulated compounds, a measured amount was placed in an individual 100 or 200 mL glass vial and was dissolved in a volume of 1.25% (v/v) Agri-Dex® crop oil concentrate to obtain application solutions.
# (§11) For technical grade compounds, a weighed amount was placed in an individual 100 to 200 mL glass vial and was dissolved in a volume of acetone to obtain concentrated stock solutions.
# as §5
# (§12) The treated plants and control plants were placed in a greenhouse as described above and water was added as needed to maintain a paddy flood. […]
# [4] = test system: ECHCG; test: as above; format: in vivo, Echinochloa crus-galli (L.) Beauv.
# Outline: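 Compound A (SC, acid-equivalent basis) alone or with cyhalofop-R-butyl or metamifop plus a third herbicide, injected into paddy water of greenhouse-grown transplanted rice and weeds at 1st–4th leaf stage (~29/26 °C). Visual injury scored 0–100% after ~3 weeks vs untreated; expected mixture effects by Colby's equation.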
# [5] = test system: ECHOR; test: as above; format: in vivo, Echinochloa oryzoides (Ard.) Fritsch
# Experimental: as §6, §7, §8, §9, §10, §11, §5, §12
# [6] = test system: FIMMI; test: as above; format: in vivo, Fimbristylis miliacea (L.) Vahl
# Experimental: as §6, §7, §8, §9, §10, §11, §5, §12
# [7] = test system: CYPIR; test: Example V (second) postemergence foliar-applied ternary mixtures, greenhouse, direct seeded rice weeds; format: in vivo, Cyperus iria L.
# Experimental: as §2, §3, §4
# [8] = test system: ECHOR; test: as above; format: in vivo, Echinochloa oryzoides (Ard.) Fritsch
# Experimental: Seeds or nutlets of the desired test plant species were planted in a soil matrix prepared by mixing a sandy loam or loam soil (e.g., 32 percent silt, 23 percent clay, and 45 percent sand, with a pH of about 6.5 and an organic matter content of about 1.9 percent) and calcareous grit in an 80 to 20 ratio. The soil matrix was contained in plastic pots with a volume of 1 quart and a surface area of 83.6 square centimeters (cm^2). […] The plants were grown for 8-22 days in a greenhouse with an approximate 14 hr. photoperiod which was maintained at about 29° C. during the day and 26° C. during the night. Nutrients (Peters Excel® 15-5-15 5-Ca 2-Mg and iron chelate) were applied in the irrigation solution as needed and water was added on a regular basis. Supplemental lighting was provided with overhead metal halide 1000-Watt lamps as necessary. The plants were employed for testing when they reached the first through fourth true leaf stage.
# as §7, with “inhibitor,” for “inhibitor herbicide,”
# For treatments comprised of formulated compounds, measured amounts of compounds were placed individually in 25 mL glass vials and diluted in a volume of 1.25% (v/v) Agri-Dex® crop oil concentrate to obtain 12× stock solutions. […] Application solutions were prepared by adding an appropriate amount of each stock solution (e.g., 1 mL) and diluted to the appropriate final concentrations with the addition of 9 mL of an aqueous mixture of 1.25% (v/v) crop oil concentrate so that the final spray solutions contained 1.25% (v/v) crop oil concentrate.
# As required, additional water and/or 97:3 v/v acetone/DMSO was added to individual application solutions so that the final acetone and DMSO concentrations of the application solutions being compared were 8.1% and 0.25%, respectively.
# as §1, §2, §3, §4
# [9] = test system: SCPJU; test: as above; format: in vivo, Schoenoplectus juncoides (Roxb.) Palla; conditions: 17.5 gae/ha
# From the text: Seeds or nutlets of the desired test plant species were planted in a soil matrix prepared by mixing a sandy loam or loam soil (e.g., 32 percent silt, 23 percent clay, and 45 percent sand, with a pH of about 6.5 and an organic matter content of about 1.9 percent) and calcareous grit in an 80 to 20 ratio. The soil matrix was contained in plastic pots with a volume of 1 quart and a surface area of 83.6 square centimeters (cm^2). When required to ensure good germination and healthy plants, a fungicide treatment and/or other chemical or physical treatment was applied. The plants were grown for 8-22 days in a greenhouse with an approximate 14 hr. photoperiod which was maintained at about 29° C. during the day and 26° C. during the night. Nutrients (Peters Excel® 15-5-15 5-Ca 2-Mg and iron chelate) were applied in the irrigation solution as needed and water was added on a regular basis. Supplemental lighting was provided with overhead metal halide 1000-Watt lamps as necessary. The plants were employed for testing when they reached the first through fourth true leaf stage.
# as §7, with “inhibitor,” for “inhibitor herbicide,”
# The ACCase inhibitor component was applied on an active ingredient basis and included cyhalofop-R-butyl formulated as Clincher® SF, fenoxaprop-p-ethyl formulated as RiceStar® HT, and profoxydim formulated as Aura® 20EC. Other herbicidal components were applied on an active ingredient or acid equivalent basis depending on the compound and included penoxsulam formulated as Grasp® SC, bentazon sodium formulated as Basagran®, triclopyr […] (TEA) salt formulated as Grandstand® R, bispyribac sodium formulated as Regiment® 80WP, imazamox ammonium formulated as Beyond®, benzobicyclon, quinclorac formulated as Facet® 75DF, glyphosate dimethylammonium (DMA) salt formulated as Durango® DMA, glufosinate ammonium formulated as Ignite® 280, fentrazamide formulated as an emulsifiable concentrate (EC), propyrisulfuron formulated as Zeta One®, and indanofan (technical grade material).
# Treatment requirements were calculated based upon the rates being tested, the concentration of active ingredient or acid equivalent in the formulation, and a 12 mL application volume at a rate of 187 L/ha.
# For treatments comprised of formulated compounds, measured amounts of compounds were placed individually in 25 mL glass vials and diluted in a volume of 1.25% (v/v) Agri-Dex® crop oil concentrate to obtain 12× stock solutions. […]
# [10] = test system: ECHCO; test: as above; format: in vivo, Echinochloa colona (L.) Link; conditions: 17.5 gae/ha
# Experimental: as §2, §3, §4
# [11] = test system: ECHCG; test: as above; format: in vivo, Echinochloa crus-galli (L.) Beauv.; conditions: 17.5 gae/ha
# Outline: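 Compound A (SC, acid equivalent), an ACCase inhibitor and a third herbicide were sprayed alone and as ternary mixtures postemergence at 187 L/ha with 1.25% v/v crop oil concentrate on greenhouse plants at the 1st–4th true leaf stage (29/26 °C day/night, ~14 h photoperiod). Injury was scored visually at ~3 weeks (0–100%) against untreated plants, and Colby's equation gave the expected mixture effects.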
# [12] = test system: SCPJU; test: Example VI in-water applied ternary mixtures, greenhouse, transplanted paddy rice weeds; format: in vivo, Schoenoplectus juncoides (Roxb.) Palla; conditions: 17.5 gai/ha
# Experimental: as §6, §7
# The ACCase inhibitor component was applied on an active ingredient basis and included cyhalofop-R-butyl formulated as Clincher® G and metamifop formulated as Metamifop EC. […]
# as §9
# For formulated compounds, a measured amount was placed in an individual 100 or 200 mL glass vial and was dissolved in a volume of 1.25% (v/v) Agri-Dex® crop oil concentrate to obtain application solutions. […]
smiles,measurement,setting,value
COc1cnc(OC)n2nc(NS(=O)(=O)c3c(OCC(F)F)cccc3C(F)(F)F)nc12 [Penoxsulam],Visual Weed Control (%) - 21 DAA IPOHE Obs,[1],48%
same,Visual Weed Control (%) - 24 DAA SCPMA Obs,[2],30%
same,Visual Weed Control (%) - 21 DAA CYPRO Obs,[3]; 1.25 gai/ha,0%
same,Visual Weed Control (%) - 24 DAA CYPRO Obs,[3]; 2.5 gai/ha,0%
same,Visual Weed Control (%) - 24 DAA CYPRO Obs,[3]; 5 gai/ha,0%
same,Visual Weed Control (%) - 21 DAA ECHCG Obs,"[4]; 1.25 gai/ha, first sub-table",17%
same,Visual Weed Control (%) - 21 DAA ECHCG Obs,"[4]; 2.5 gai/ha, second sub-table",55%
same,Visual Weed Control (%) - 24 DAA ECHOR Obs,"[5]; Table 71, 5 gai/ha",65%
same,Visual Weed Control (%) - 24 DAA ECHOR Obs,"[5]; Table 71, 10 gai/ha",93%
same,Visual Weed Control (%) - 21 DAA FIMMI Obs,[6]; 1.25 gai/ha,33%
same,Visual Weed Control (%) - 24 DAA FIMMI Obs,[6]; 2.5 gai/ha,60%
same,Visual Weed Control (%) - 22 DAA CYPIR Obs,[7]; 4.38 gai/ha,50%
same,Visual Weed Control (%) - 22 DAA ECHOR Obs,[8]; 4.38 gai/ha,45%
same,Visual Weed Control (%) - 22 DAA ECHOR Obs,[8]; 8.75 gai/ha,53%
CCN(CC)CC.O=C(O)COc1nc(Cl)c(Cl)cc1Cl [Triclopyr TEA Salt],Visual Weed Control (%) - 21 DAA SCPJU Obs,[9],43%
same,Visual Weed Control (%) - 21 DAA CYPIR Obs,[7]; 17.5 gae/ha,0%
same,Visual Weed Control (%) - 21 DAA ECHCO Obs,[10],3%
same,Visual Weed Control (%) - 21 DAA ECHCG Obs,[11],0%
CCN(CC)CC.O=C(O)COc1nc(Cl)c(Cl)cc1Cl [Triclopyr TEA],Visual Weed Control (%) - 21 DAA SCPJU Obs,[12],8%
same,Visual Weed Control (%) - 21 DAA ECHCG Obs,"[4]; 17.5 gai/ha, first set",0%
same,Visual Weed Control (%) - 21 DAA ECHCG Obs,"[4]; 35 gai/ha, second set",0%
